# Experimental data as given in US11655456B2, “Engineered intestinal tissue and uses thereof” (Organovo, Inc., priority 2016, dated 2023).
# Entries after “also recorded” stand apart in the source; their conditions may differ.
# Tests used:
# [1] = tested on: 3D bioprinted intestinal tissue
# [2] = target: T1, BCRP (Homo sapiens, UniProt Q9UNQ0)
# T1 sequence (Q9UNQ0 1-655): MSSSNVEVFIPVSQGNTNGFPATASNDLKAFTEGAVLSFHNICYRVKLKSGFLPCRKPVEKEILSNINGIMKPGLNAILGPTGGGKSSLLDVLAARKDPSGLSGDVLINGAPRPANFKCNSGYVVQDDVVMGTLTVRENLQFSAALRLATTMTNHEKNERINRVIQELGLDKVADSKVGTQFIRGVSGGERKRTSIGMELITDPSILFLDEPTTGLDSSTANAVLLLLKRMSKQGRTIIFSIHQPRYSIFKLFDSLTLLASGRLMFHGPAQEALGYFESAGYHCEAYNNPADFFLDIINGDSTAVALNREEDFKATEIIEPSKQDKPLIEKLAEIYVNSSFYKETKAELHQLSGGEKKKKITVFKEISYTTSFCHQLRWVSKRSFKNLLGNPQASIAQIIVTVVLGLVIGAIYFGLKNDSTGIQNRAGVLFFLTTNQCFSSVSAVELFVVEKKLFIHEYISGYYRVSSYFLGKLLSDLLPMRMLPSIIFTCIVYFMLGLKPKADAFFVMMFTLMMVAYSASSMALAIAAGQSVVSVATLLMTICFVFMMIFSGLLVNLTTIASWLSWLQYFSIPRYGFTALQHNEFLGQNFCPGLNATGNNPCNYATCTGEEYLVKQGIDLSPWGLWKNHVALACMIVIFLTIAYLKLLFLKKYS
# Protocol: FIGS. 25A-25D show P-gp and BCRP transporter function in 3D bioprinted intestinal tissue.
# P-gp and BCRP function were tested in the 3D bioprinted intestinal tissue model by measuring bi-directional transport with and without inhibition (FIG. 25C).
# [3] = tested on: 3D printed tissues and 2D epithelial monolayers of Caco-2/STC-1 cells; assay: Lucifer Yellow permeability (barrier integrity) of 3D printed Caco-2 tissues and 2D monolayers; type: in vitro ADME, human; conditions: bioprinted 3D constructs and 2D monolayers (Caco-2/STC-1), later stages of culture
# Protocol: FIG. 5 is a bar graph showing permeability comparison of 2D monolayers and 3D bioprinted Caco-2 tissues measured by Lucifer Yellow. […] Permeability was measured on 3D printed tissues and compared to 2D epithelial monolayers of Caco-2/STC-1 cells and interstitium alone.
# Experiment time course studies were run 4, 7, and 14 days post addition of epithelial cells. Tissues were measured for GLP-1 secretion into supernatant. Tissues were also measured for barrier function at multiple time points by TEER or Lucifer yellow (non-lytic assays). After incubation, the tissues were fixed in paraformaldehyde (PFA) for histology or lysed for RNA extraction.
# [4] = tested on: 3D bioprinted intestinal tissue; remark: listed apart in the source
# [5] = tested on: COX2, IL8, and TNFα; assay: Inflammation gene expression after TNFα treatment of 3D bioprinted intestinal tissue; type: cell-based, human; conditions: TNFα high dose, 24 hours
# Protocol: To characterize the 3D bioprinted intestinal model response to inflammation, commonly associated with GI toxicity as well as chronic disease conditions, tissues were treated with a high dose of pro-inflammatory cytokine TNFα for 24 hours and evaluated for changes in morphology, LDH release, and gene expression (FIG. 28).
# [6] = tested on: 3D bioprinted intestinal tissue; conditions: higher / increasing doses of indomethacin
# [7] = tested on: prostaglandin E2 synthesis; assay: Prostaglandin E2 synthesis in 3D bioprinted intestinal tissue; type: cell-based, human; conditions: all indomethacin doses tested
# [8] = tested on: 3D bioprinted intestinal tissue; assay: Barrier function (TEER) of 3D bioprinted intestinal tissue after toxicant treatment; conditions: 24 hour incubation, varying doses
# [9] = tested on: 3D bioprinted intestinal tissue; assay: LDH activity / release from 3D bioprinted intestinal tissue after toxicant treatment
compound,measurement,setting,value
C[C@H]1O[C@@H](O[C@H]2[C@@H](O)C[C@H](O[C@H]3[C@@H](O)C[C@H](O[C@H]4CC[C@@]5(C)[C@H](CC[C@@H]6[C@@H]5C[C@@H](O)[C@]5(C)[C@@H](C7=CC(=O)OC7)CC[C@]65O)C4)O[C@@H]3C)O[C@@H]2C)C[C@H](O)[C@@H]1O [digoxin],permeability in the apical to basal direction,[1],moderate
CC[C@@]1(O)C(=O)OCc2c1cc1n(c2=O)Cc2cc3c(CN(C)C)c(O)ccc3nc2-1 [topotecan],efflux ratio,[2]; control conditions,8.8
O=C1c2c(O)ccc(O)c2C(=O)c2c(NCCNCCO)ccc(NCCNCCO)c21 [mitoxantrone],permeability in the B to A direction compared with A to B,[2],much higher permeability
Lucifer yellow,Lucifer Yellow permeability,[3],< 3%
TNFα,barrier function,[4],decreased barrier function
same,"gene expression of COX2, IL8 and TNFα",[5],upregulated
COc1ccc2c(c1)c(CC(=O)O)c(C)n2C(=O)c1ccc(Cl)cc1 [indomethacin],E-Cadherin expression (marker of barrier function),[6],reduction in E-Cadherin; also recorded: decreased expression of E-Cadherin
same,histology of the epithelium,[6],disruption of the epithelium and distorted nuclear staining; also recorded: increased disruption of the epithelial layer
same,prostaglandin E2 synthesis,[7],decreased to similar levels for all indomethacin doses tested; also recorded: inhibition of prostaglandin E2 synthesis
same,barrier function measured by TEER,[8],dose response decrease in TEER; also recorded: dose-dependent decrease in barrier function; also recorded: decreased TEER
same,LDH activity,"[9]; 24 hour treatment, increasing indomethacin dose",increased
same,LDH release,[9]; indomethacin doses above 0.25 mM,significantly increased
